Data published in patent US20250108007A1, “LIPID COMPOUND AND LIPID NANOPARTICLE COMPOSITION” (SUZHOU ABOGEN BIOSCIENCES CO., LTD., priority 2021, published 2025).

Experiments:
[1] = Size and polydispersity of lipid nanoparticles by dynamic light scattering; assay type: physicochemical; settings: LNP cationic lipid/DSPC/cholesterol/PEG-lipid 50:10:38.5:1.5 with mRNA
Description: (§1) Briefly, the cationic lipid, DSPC, cholesterol and PEG-lipid provided by the present invention were dissolved in ethanol at a molar ratio of 50:10:38.5:1.5, and mRNA was diluted in a citrate buffer at 10-50 mM, pH=4. The ethanolic lipid solution and the mRNA aqueous solution were mixed at a volume ratio of 1:3 by a microfluidic device at a flow rate of 9-30 mL/min, so as to prepare LNP at a weight ratio of total lipid to mRNA of about 10:1 to 30:1. PBS for dialysis was used instead of ethanol, thereby removing ethanol. Finally, the lipid nanoparticles were filtered through a 0.2 μm sterile filter.
(§2) The size of the lipid nanoparticles was determined by dynamic light scattering using 173° backscatter detection mode of Malvern Zetasizer Nano ZS (Malvern UK). According to the description of the manufacturer, the encapsulation efficiency of the lipid nanoparticle was determined using a Quant-it Ribogreen RNA quantitative assay kit (Thermo Fisher Scientific, UK).

[2] = Encapsulation efficiency of lipid nanoparticles (Quant-it Ribogreen RNA assay); assay type: physicochemical; settings: LNP cationic lipid/DSPC/cholesterol/PEG-lipid 50:10:38.5:1.5 with mRNA
Description: as §1, §2

female ICR mice = experiment: hEPO mRNA lipid nanoparticles in mice, serum EPO by ELISA; assay type: in vivo; settings: hEPO mRNA LNP, 0.5 mg/kg, tail vein injection, blood e.g. 6 hours after administration, relative to MC3 LNP positive control
Description: Lipid nanoparticles including human erythropoietin (hEPO) mRNA encapsulated by compound in the following table were administered at a dose of 0.5 mg/kg to female ICR mice at 6-8 weeks of age (Xipuer-Bikai, Shanghai) via tail vein injection. Mouse blood samples were taken at specific time points (e.g., 6 hours) after administration. In addition to the above test groups, the lipid nanoparticles including dilinoleylmethyl-4-dimethylaminobutyrate (DLin-MC3-DMA, commonly abbreviated as MC3) encapsulated hEPO mRNA were administered at the same dose to mice of similar age and sex as positive controls.
After the last sampling time point, the mice were euthanized by excess CO2. Serum was separated from whole blood by centrifugation at 5,000 g for 10 minutes at 4° C., snap frozen and stored at −80° C. for analysis. ELSA analysis was performed using a commercially available kit (DEP00, R&D system) according to the manufacturer instructions.
The following table lists the characteristics of the tested lipid nanoparticles, including the expression levels measured from the test group above MC3.

| Polydispersity index (PDI) [1] | Size (nm) [1] [nm] | Encapsulation efficiency (EE %) [2] [%] | Structure (SMILES) | EPO expression relative to MC3 (female ICR mice) |
| --- | --- | --- | --- | --- |
| 0.257 | 68.14 | 99.1 | CCCCCCCCC(CCCCCCCC)COC(=O)CCCCCN(CCCCCC(=O)OCC(CCCCCCCC)CCCCCCCC)CC1(O)CCN(C(=O)CCCN(C)C)CC1 [Compound 1] | Not detected |
| 0.114 | 80.02 | 98.1 | CCCCCCCCC(CCCCCCCC)COC(=O)CCCCCN(CCCCCC(=O)OCC(CCCCCCCC)CCCCCCCC)CC1(O)CCN(C)CC1 [Compound 2] | Not detected |
| 0.248 | 78.45 | 97.3 | CCCCCCCCC(CCCCCCCC)COC(=O)CCCCCN(CCCCCC(=O)OCC(CCCCCCCC)CCCCCCCC)CC1(O)CCN(C(=O)CN(C)C)CC1 [Compound 3] | Not detected |
| 0.28 | 55.63 | 98.4 | CCCCCCCCC(CCCCCCCC)COC(=O)CCCCCN(CCCCCC(=O)OCC(CCCCCCCC)CCCCCCCC)CC1(O)CCN(C(=O)CCCCN(C)C)CC1 [Compound 4] | Not detected |
| 0.034 | 83.23 | 92.8 | CCCCCCCCC(CCCCCCCC)COC(=O)CCCCCN(CCCCCC(=O)OCC(CCCCCCCC)CCCCCCCC)CC1(O)CCN(CCC)CC1 [Compound 6] | A (A: ≥2) |
| 0.073 | 43.78 | 97.6 | CCCCCCCCC(CCCCCCCC)COC(=O)CCCCCN(CCCCCC(=O)OCC(CCCCCCCC)CCCCCCCC)CCC(=O)N1CCC(O)(CN(C)C)CC1 [Compound 7] | Not detected |
| 0.16 | 54.23 | 93.7 | CCCCCCCCC(CCCCCCCC)COC(=O)CCCCCN1CCC(O)(CN(CCCCCC(=O)OCC(CCCCCCCC)CCCCCCCC)C2CCC2)CC1 [Compound 8] | C (C: ≥0.1 and <1) |
| 0.212 | 35.26 | 97.6 | CCCCCCCCC(CCCCCC)COC(=O)CCCCCN(CCCCCC(=O)OCC(CCCCCC)CCCCCCCC)CCCCCC(=O)N1CCC(O)(CN(C)C)CC1 (centres unmarked) [Compound 9] | Not detected |
| 0.083 | 133.3 | 96.7 | CCCCCCCCC(CCCCCC)COC(=O)CCCCCN(CCCCCC(=O)OCC(CCCCCC)CCCCCCCC)CCN1CCC(O)(CN(C)CC)CC1 (centres unmarked) [Compound 10] | Not detected |
| 0.045 | 86.19 | 96.8 | CCCCCCCCC(CCCCCC)COC(=O)CCCCCN(C)CC1(O)CCN(CCCCCC(=O)OCC(CCCCCC)CCCCCCCC)CC1 (centres unmarked) [Compound 11] | B (B: ≥1 and <2) |
| 0.084 | 109.1 | 81.5 | CCCCCCCCC(CCCCCC)COC(=O)CCCCCN1CCC(O)(CN(CCCCCC(=O)OCC(CCCCCC)CCCCCCCC)C2CCCC2)CC1 (centres unmarked) [Compound 12] | C (C: ≥0.1 and <1) |
| 0.049 | 117.7 | 83.9 | CCCCCCCCC(CCCCCC)COC(=O)CCCCCN1CCC(O)(CN(CCCCCC(=O)OCC(CCCCCC)CCCCCCCC)C2CCCCC2)CC1 (centres unmarked) [Compound 13] | C (C: ≥0.1 and <1) |
| 0.139 | 97.33 | 97.3 | CCCCCCCCC(CCCCCC)COC(=O)CCCCCN(CCCCCC(=O)OCC(CCCCCC)CCCCCCCC)CCN1CCC(O)(CN(C)C)CC1 (centres unmarked) [Compound 14] | Not detected |
| 0.06 | 53.67 | 94.3 | CCCCCCCCC(CCCCCC)CC(=O)OCC(CCCCN1CCC(O)(CN(C)C)CC1)COC(=O)CC(CCCCCC)CCCCCCCC (centres unmarked) [Compound 15] | Not detected |
